Laboratory results as given in patent publication US7862804B2, “Admistration of C-glycoside compounds for depigmenting/whitening the skin” (Loreal, priority 2005, dated 2011).

Test system: actinic lentigines
Assay: Double blind clinical study versus placebo; dermatologist's clinical evaluation of actinic lentigines
Assay type: in vivo, human
Description: A clinical evaluation of actinic lentigines was carried out by a dermatologist at the beginning and at the end of the study according to a scale with 7 levels, including 4 main levels: • 0—absent; • 1—few blemishes; • 2—many blemishes; • 3—a great many blemishes; and 3 intermediate levels (0.5; 1.5; 2.5).
The women applied C-β-D-xylopyranoside-2-hydroxypropane at a concentration of 10% by weight with respect to the total weight of the composition in a proportion of 2 mg/cm^2 or the placebo twice daily for 3 months (98 days) to the pre-marked regions.

## CC(O)C[C@@H]1OC[C@@H](O)[C@H](O)[C@H]1O (stereo partly drawn) [C-β-D-xylopyranoside-2-hydroxypropane]
Scale with 7 levels, 0-3, 10% by weight, 2 mg/cm^2 topical twice daily for 3 months (98 days), p=0.08
  mean score of actinic lentigines on the treated side, end of study: 0.93+/−0.68
Scale with 7 levels, 0 absent to 3 a great many blemishes, 15 women, phototype III, baseline of treated side
  mean score of actinic lentigines on the treated side, before treatment: 1.07+/−0.62
Treated side versus placebo side, after 3 months (98 days) of 10% topical twice daily
  subjects exhibiting a lower score on the treated side, end of study: 54%
Treated side versus placebo side, baseline
  subjects exhibiting a lower score on the treated side, at the beginning of the study: 13%
